Calls of active or inactive are those of the source.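 How the source made its calls: active means compounds giving half or more protection of infected cells from virus-caused growth loss, again on retest; inactive means the rest.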 Where a SMILES comes first, the peptide text is derived from it.
Tested on: CEM cells HIV-1 protection, formazan growth assay
Assay: NCI AIDS Antiviral Assay
Settings: for IC50: measured here: growth of uninfected CEM cells
Outline: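 Soluble formazan readout of cell growth; CEM cells ± HIV-1; 5 drug concs. ≥50% protection → retest; ≥50% again = moderately active; reproducible 100% = confirmed active.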

Compound: O=C(O)c1c(O)ccc(N=Nc2ccc(/C=C/c3ccc(N=Nc4ccc(O)c(C(=O)O)c4O)cc3S(=O)(=O)O)c(S(=O)(=O)O)c2)c1O
- EC50: > 14.5 µM
- IC50: > 14.5 µM

Compound: CC(OC(=O)NCn1cc(-c2ccccc2)nn1)c1ccccc1 (stereo unspecified)
- EC50: 56.2 µM
- IC50: 75.9 µM

Compound: COC(=O)CSSCC(=O)OC
- outcome: inactive

Compound: O=C1CSCN1N1CSCC1=O
- EC50: > 200 µM
- IC50: > 200 µM

Compound: O=C(O)c1ccc2c(c1)C(=O)N(c1ccc(S(=O)(=O)c3ccc(N4C(=O)c5ccc(C(=O)O)cc5C4=O)cc3)cc1)C2=O
- outcome: inactive

Compound: Oc1ccc2ccc3c(c2c1)CN(Cc1ccccc1)CO3
- EC50: > 24.5 µM
- IC50: > 24.5 µM

Compound: CCOC(=O)/C(O)=C(/C=N/C(=S)Nc1c(CC)cccc1CC)C(=O)OCC
- EC50: > 200 µM
- IC50: 110 µM

Compound: CNc1ccc(N)cc1C(=O)N1CCC[C@H]1CO
- EC50: > 200 µM
- IC50: > 200 µM

Compound: COC(=O)C(=O)C(C(=O)C(=O)Nc1ccccc1C(N)=O)c1nc2ccc(C(=O)c3ccccc3)cc2[nH]c1=O (stereo unspecified)
- EC50: > 240 µM
- IC50: 63.1 µM

Compound: C/C(CC(O)(C(F)(F)Cl)C(F)(F)Cl)=N\NC(N)=S
- EC50: > 200 µM
- IC50: 110 µM

Compound: CCOC(=O)Cc1csc2[n+]1C(=O)/C(=C/c1ccc(OC)c(OC)c1)S2
- EC50: > 200 µM
- IC50: 20 µM

Compound: CC(C)OP(=O)(OC(C)C)C(=Nc1ccncc1)NNc1ccc([N+](=O)[O-])cc1
- EC50: > 61.7 µM
- IC50: > 61.7 µM

Compound: CC(C)N1C(C)[C@@H](c2ccccc2)O[P@@]1(=O)/C=C/C[C@H]1CC(=O)CCN1Cc1ccccc1 (stereo partly specified)
- outcome: inactive

Compound: O=C(CC(=O)N1N=C(n2ccc3ccccc32)CC1c1ccccc1)Nc1cccc(Cl)c1 (stereo unspecified)
- outcome: inactive

Compound: IC[P+]1(c2ccccc2)CCCC1
- EC50: > 575 µM
- IC50: 55 µM

Compound: COc1c2c(c(N)c3ccc(=O)oc13)CCO2
- EC50: > 126 µM
- IC50: > 126 µM

Compound: C#CC1(O)CCC2C3CCC4=C(CCC(=O)C4)C3CCC21C (stereo unspecified)
- EC50: 30.9 µM
- IC50: 166 µM

Compound: CCOC(=O)c1c(NC(=O)OC)c(C#N)c2n1CCCCC2
- EC50: > 200 µM
- IC50: > 200 µM

Compound: Cc1ccccc1-n1c(=O)nc2n(-c3ccc(C(C)(C)C)cc3)c3ccccc3cc-2c1=O
- EC50: > 200 µM
- IC50: 14.1 µM

Compound: Cc1c(C#N)c2nnn(-c3ccccc3)c(=O)n2c1-c1ccccc1
- EC50: > 200 µM
- IC50: 1.02 µM

Compound: CC(NCCCCNC(C)C(=O)O)C(=O)O (stereo unspecified)
- EC50: > 631 µM
- IC50: > 631 µM

Compound: COC(=O)c1cc(C)n(NC(=O)OC(C)(C)C)c1C
- EC50: > 251 µM
- IC50: > 251 µM

Compound: O=C(O)C1C2C=CC(C(/C=C/c3ccccc3)N2)C1C(=O)O (stereo unspecified)
- EC50: > 200 µM
- IC50: > 200 µM

Compound: CC(C)/C=C/C1=C(O)c2ccccc2C(=O)C1=O
- outcome: inactive

Compound: C/C(=N\NC(=O)CCSCCC(=O)N/N=C(\C)c1ccc(OS(C)(=O)=O)cc1)c1ccc(OS(C)(=O)=O)cc1
- EC50: > 200 µM
- IC50: > 200 µM

Compound: CC1=C(C(=O)Nc2c(C)cccc2C)C(c2ccc3c(c2)OCO3)C(C(=O)Nc2c(C)cccc2C)=C(C)N1
- EC50: > 25.7 µM
- IC50: > 25.7 µM

Compound: Cn1ccc(=NS(=O)(=O)c2ccccc2)cc1
- outcome: inactive

Compound: COc1cc(C(O)C2C(=O)OCC2C2(c3ccc4c(c3)OCO4)SCCCS2)cc(OC)c1OC (stereo unspecified)
- EC50: > 36.3 µM
- IC50: > 36.3 µM

Compound: Cc1cc(C)nc(NS(=O)(=O)c2ccc(Nc3c4ccccc4nc4c(C(=O)NCCCN(CCO)CCO)cccc34)cc2)n1
- EC50: > 200 µM
- IC50: 6.46 µM

Compound: C1CCCN(NC2=NCCO2)CC1
- EC50: 93.3 µM
- IC50: 1000 µM

Compound: CSC1=Nc2cc3c(cc2C(=O)N2C[C@H](O)CC12)OCO3 (stereo partly specified)
- EC50: > 200 µM
- IC50: 110 µM

Compound: c1ccc(N=C(N2CCCCC2)N(CCN2CCCCC2)c2ccccc2)cc1
- EC50: > 200 µM
- IC50: 1.82 µM

Compound: NC(C(F)(F)F)(C(F)(F)F)P(=O)(c1ccccc1)c1ccccc1
- EC50: > 200 µM
- IC50: > 200 µM

Compound: COC(=O)C(Cc1ccccc1)C(=O)NC(CNC(=O)OCc1ccccc1)C(=O)OCc1ccccc1 (stereo unspecified)
- EC50: > 200 µM
- IC50: 29.5 µM

Compound: Cc1ccc(S(=O)(=O)N/N=C2/C3CCC(C3)C2c2ccccc2)cc1 (stereo unspecified)
- EC50: > 200 µM
- IC50: > 200 µM

Compound: CC(=O)CCn1[nH]c(=O)c(Cl)c(Cl)c1=O
- EC50: > 1000 µM
- IC50: > 1000 µM

Compound: COC(=O)c1cc2c(c(C(=O)OC)c1)CCC2
- EC50: > 200 µM
- IC50: 40.7 µM

Compound: Cc1ccc(S(=O)(=O)/C(C#N)=C\N2CCNC2=S)cc1
- EC50: > 200 µM
- IC50: > 200 µM

Compound: CCC(C)C(NC(=O)CNC(=O)C(Cc1c[nH]c2ccccc12)NC(=O)C(NC(=O)C(NC(=O)C(N)CC(C)C)C(C)O)C(C)C)C(=O)NC(CCCCN)C(=O)NC(CCC(N)=O)C(=O)NC(CC(C)C)C(=O)NC(CCC(N)=O)C(=O)NC(C)C(=O)NC(CCCN=C(N)N)C(N)=O (stereo unspecified) (H-LTVWGIKQLQAR-NH2; configuration not given here)
- EC50: > 50.1 µM
- IC50: > 50.1 µM

Compound: O=c1[nH]cnc(O)c1N=Nc1ccc(/C=C/c2ccc(N=Nc3c(O)nc[nH]c3=O)cc2S(=O)(=O)O)c(S(=O)(=O)O)c1
- EC50: > 63.1 µM
- IC50: > 63.1 µM

Compound: Cn1c(=O)c2[nH]c(Nc3cccc(Cl)c3)nc2n(C)c1=O
- EC50: > 200 µM
- IC50: 10.7 µM

Compound: COc1cc2c(cc1OCCCCCN1C(=O)c3cccc4cccc(c34)C1=O)N=C[C@@H]1CCCN1C2=O
- EC50: > 2 µM
- IC50: 1.1 µM

Compound: CC(=O)O[C@H]1CCN2C(=O)C=CC(OCc3ccccc3)C12 (stereo partly specified)
- EC50: > 832 µM
- IC50: 794 µM

Compound: NC(Cc1ccccc1)C(=O)NC(Cc1ccccc1)NC(=O)C(Cc1c[nH]c2ccccc12)C(=O)O (stereo unspecified)
- outcome: inactive

Compound: CN(C)CC1(C)Cc2sccc2C1=O (stereo unspecified)
- EC50: > 200 µM
- IC50: > 200 µM

Compound: COc1cc([C@@H]2c3cc4c(cc3[C@H](O)[C@H]3COC(=O)[C@H]23)OCO4)cc(OC)c1OC
- EC50: > 2.29 µM
- IC50: 0.00479 µM

Compound: C=C1C[C@@H]2C[C@@H](C)CC(O)[C@]2(CCCN)C1O (stereo partly specified)
- outcome: inactive

Compound: CN(C)C1C(=O)C(C(=O)NCNC(CO)(CO)CO)=C(O)C2(O)C(=O)C3=C(O)c4c(O)cccc4C(C)(O)C3CC12 (stereo unspecified)
- EC50: > 200 µM
- IC50: 132 µM

Compound: O=c1c2c3ccccc3[nH]c2c2cccc3c2n1CCC3
- EC50: > 200 µM
- IC50: 61.7 µM

Compound: CC1(C)OP23(NC(=O)OC2(C(F)(F)F)c2ccccc2O3)OC1(C)C (stereo unspecified)
- EC50: > 245 µM
- IC50: > 245 µM

Compound: CC(=O)[C@@]1(O)CC[C@H]2[C@@H]3C[C@H](C)C4=CC(=O)C=C[C@]4(C)[C@@]3(F)[C@@H](O)C[C@@]21C
- outcome: inactive

Compound: COc1ccc(C2Nc3ccccc3NC3CC(C)(C)CC(=O)C32)cc1 (stereo unspecified)
- EC50: > 257 µM
- IC50: 178 µM

Compound: CCOC(=O)Cn1nc2oc(=O)c(CCN3CCN(c4ccccc4OC)CC3)c(C)c2c1C
- EC50: > 200 µM
- IC50: > 200 µM

Compound: CCOC(=O)C(C)C(CCC#N)(C(=O)OCC)C(=O)OCC (stereo unspecified)
- EC50: > 200 µM
- IC50: > 200 µM

Compound: C[N+](C)(C)CC1CCCC/C1=N\OC(=O)c1ccccc1 (stereo unspecified)
- EC50: > 603 µM
- IC50: 575 µM

Compound: Cc1cc(C)n2c(C)nnc2c1
- EC50: > 1550 µM
- IC50: 1120 µM

Compound: CCOC(=O)c1ccc(-c2cccs2)n1C
- EC50: > 200 µM
- IC50: 97.7 µM

Compound: CC1(Br)C2c3ccccc3C(c3ccccc32)C1(C)C(Cl)(Cl)Cl (stereo unspecified)
- EC50: > 16.6 µM
- IC50: > 16.6 µM

Compound: O=C(O)C1C2C=CC(C2)C1c1c2ccc(=O)c(O)c-2oc2c(O)c(O)ccc12 (stereo unspecified)
- EC50: > 200 µM
- IC50: 26.3 µM

Compound: COP(=O)(OC)C(N)Cc1c[nH]c2ccccc12 (stereo unspecified)
- EC50: > 200 µM
- IC50: > 200 µM

Compound: O=C1/C(=C/c2ccc(O)cc2)Oc2ccccc21
- EC50: > 200 µM
- IC50: 151 µM

Compound: Clc1ccc2c(SCC3CO3)c3ccccc3nc2c1 (stereo unspecified)
- EC50: > 200 µM
- IC50: 2.57 µM

Compound: COC(=O)C1=C(C(=O)OC)C23C=CC=CC24C(C(=O)OC)=C(C(=O)OC)C4C1C3 (stereo unspecified)
- EC50: > 447 µM
- IC50: 155 µM

Compound: CC1=C(C(=O)Nc2cccc3c2C(=O)NC3=O)CC(C(=O)Nc2cccc3c2C(=O)NC3=O)=C(C)N1
- EC50: > 200 µM
- IC50: > 200 µM

Compound: CCOC(=O)C1=C(C)N(NC(=O)Nc2ccccc2)C2(N)N(NC(=O)Nc3ccccc3)C(C)=C(C(=O)OCC)C12C#N (stereo unspecified)
- EC50: > 31.6 µM
- IC50: > 31.6 µM

Compound: CCOC(=O)/C(=C\c1cccc(Cl)c1)C(C)=O
- EC50: > 141 µM
- IC50: 57.5 µM

Compound: C/C(CC(=O)Nc1ccc(Cl)cc1)=N\NC(=O)C[n+]1ccccc1
- EC50: > 49 µM
- IC50: > 49 µM

Compound: CC(=O)Nc1ccc(S(=O)(=O)N/N=C/c2ccco2)cc1
- EC50: > 589 µM
- IC50: 309 µM

Compound: CC(C)(C)P1(=O)OCC(c2ccccc2)CO1 (stereo unspecified)
- EC50: > 200 µM
- IC50: 151 µM

Compound: N#Cc1cscc1C#N
- EC50: > 200 µM
- IC50: > 200 µM

Compound: CC(=O)Nc1cc(S(=O)(=O)O)cc2c(N=Nc3ccc(C(=O)Nc4ccc(N=Nc5ccc(S(=O)(=O)O)cc5)cc4)cc3)c(S(=O)(=O)O)cc(O)c12
- outcome: inactive

Compound: c1ccc2nc(NCCSSCCNc3cnc4ccccc4n3)cnc2c1
- EC50: > 200 µM
- IC50: 24.5 µM

Compound: [Se]=P(c1ccccc1)(c1ccccc1)c1ccc(C(c2ccccc2)=P(c2ccccc2)(c2ccccc2)c2ccccc2)cc1
- EC50: > 10 µM
- IC50: 1 µM

Compound: OCC12C3C4C1C1C2C3C41CO (stereo unspecified)
- EC50: > 1510 µM
- IC50: > 1510 µM

Compound: CCC[CH2][Sn]1([CH2]CCC)[O]CC(CN(C)Cc2ccccc2)[O]1 (stereo unspecified)
- EC50: > 20.9 µM
- IC50: 0.138 µM

Compound: Cc1cc(Cc2cc(C)c(O)c(C(=O)O)c2)cc(C(=O)O)c1O
- EC50: 380 µM
- IC50: 417 µM

Compound: CCN(CC)CCn1c(=O)c2ccccc2n2c3c(=O)n(C)c(=O)n(C)c3nc12
- EC50: > 20 µM
- IC50: 1.86 µM

Compound: Cc1cccc(Nc2cn(CCOc3ccccc3)c(=O)n(CCOc3ccccc3)c2=O)c1
- EC50: > 200 µM
- IC50: > 200 µM

Compound: NNC(=S)N/N=C(\CC1OC(=O)c2ccccc21)c1ccccc1O (stereo unspecified)
- EC50: > 363 µM
- IC50: 209 µM

Compound: CC(=O)O[C@H]1CC[C@@]2(C)C(=CC[C@H]3C4=CC=C(C(C)=O)[C@@]4(C)CCC32)C1 (stereo partly specified)
- outcome: inactive

Compound: O=c1c2ccccc2[se]n1-c1cccnc1
- EC50: 7.94 µM
- IC50: 36.3 µM

Compound: COc1cc[c]([Sb]([Br])([CH]=C(C)C)([CH]=C(C)C)[CH]=C(C)C)cc1
- EC50: > 380 µM
- IC50: 3.02 µM

Compound: COC1OCC(SC(=O)c2ccccc2)C(O)C1O (stereo unspecified)
- EC50: > 200 µM
- IC50: 141 µM

Compound: CCN=C1C=C/C(=C(/c2ccc(NCC)c(C)c2)c2cc(O)c(S(=O)(=O)O)cc2S(=O)(=O)O)C=C1C
- outcome: inactive
